Test results published in patent US20210145801A1, “THERAPY FOR PROTEIN MISFOLDING DISEASE” (WREN THERAPEUTICS LIMITED, priority 2018, published 2021).

Target: T1, Aβ42 (Homo sapiens, UniProt P05067)
T1 construct: made in house; host or cells: E. coli BL21 Gold (DE3)
Assay: ThT kinetic assay of Aβ42 aggregation (unseeded)
Assay type: biochemical
Conditions: 2 μM Aβ42; 5× drug:protein concentration
Source text: The recombinant Aβ(M1-42) peptide ([…]-SNKGAIIGLMVGGVVIA [SEQ ID NO: 1]), here called Aβ42, was expressed in the E. coli BL21 Gold (DE3) strain (Stratagene, Calif., U.S.A.) and purified as described previously with slight modifications. Briefly, the purification procedure involved sonication of E. coli cells, dissolution of inclusion bodies in 8 M urea, and ion exchange in batch mode on diethylaminoethyl cellulose resin and lyophylization. The lyophilized fractions were further purified using Superdex 75 HR 26/60 column (GE Healthcare, Buckinghamshire, U.K.) and eluates were analyzed using SDS-PAGE for the presence of the desired protein product. The fractions containing the recombinant protein were combined, frozen using liquid nitrogen, and lyophilized again.
Except for Netoglitazone, which was custom synthesised by GVK BIO, all small molecules were purchased with a purity greater than 99%. Small molecules were first solubilized in 100% DMSO to a concentration of 5 mM, and then diluted in the peptide solution to reach a final DMSO concentration of maximum 1-3%. We verified that the addition of DMSO in the reaction mixture has no effect on Aβ42 aggregation.
Solutions of monomeric peptides were prepared by dissolving the lyophilized Aβ42 peptide in 6 M GuHCl. Monomeric forms were purified from potential oligomeric species and salt using a Superdex 75 10/300 GL column (GE Healthcare) at a flowrate of 0.5 mL/min, and were eluted in 20 mM sodium phosphate buffer, pH 8 supplemented with 200 μM EDTA and 0.02% NaN3. The centre of the peak was collected, and the peptide concentration was determined from the absorbance of the integrated peak area using ε280=1490 L mol^−1 cm^−1. The obtained monomer was diluted with buffer to the desired concentration and supplemented with 20 μM Thioflavin T (ThT) from a 1 mM stock. All samples were prepared in low binding Eppendorf tubes on ice using careful pipetting to avoid introduction of air bubbles. Each sample was then pipetted into multiple wells of a 96-well half-area, low-binding, clear bottom and PEG coating plate (Corning 3881), 80 μL per well. Aβ42 kinetics have been performed in the absence or the presence of Netoglitazone, Mitoglitazone, Rosiglotazone, Rivoglitazone, Pioglitazone, Ciglitazone, Englitazone, Darglitazone, Troglitazone and Balaglitazone.
The time evolution of the total fibril mass concentration is described as a function only of the initial conditions and the rate constants of the system by the integrated rate law given by Eq. (54) in Cohen et al., J Chem Phys 135, 065106, 2011.
These are related to the rate of formation of new aggregates through primary pathways λ=√{square root over (2k+knm(0)^n^c)} and through secondary pathways κ=√{square root over (2k+k2m(0)^n^2^+1)}, where the initial concentration of soluble monomers is denoted by m(0), nc and n2 describe the dependencies of the primary and secondary pathways on the monomer concentration (nc=n2=2 for Aβ42), and kn, k+ and k2 are the rate constants of the primary nucleation, elongation and secondary nucleation, respectively (Cohen et al., Proc Natl Acad Sci USA, 110(24), 9758-63, 2013).
Inhibitors can interfere with the aggregation process by inhibiting one or more of the individual microscopic steps.

T1 sequence (P05067 671-713): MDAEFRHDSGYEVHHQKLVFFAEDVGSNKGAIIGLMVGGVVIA

Row | SMILES | Delay of Aβ42 aggregation
1 | CCc1ccc(C(=O)COc2ccc(CC3SC(=O)NC3=O)cc2)nc1 (centres unmarked) [Mitoglitazone] | little to no delay of Aβ42 aggregation was observed
2 | COc1ccc2nc(COc3ccc(CC4SC(=O)NC4=O)cc3)n(C)c2c1 (centres unmarked) [Rivoglitazone] | little to no delay of Aβ42 aggregation was observed
3 | Cn1c(COc2ccc(CC3SC(=O)NC3=O)cc2)nc2ccccc2c1=O (centres unmarked) [Balaglitazone] | little to no delay of Aβ42 aggregation was observed
4 | Cc1oc(-c2ccccc2)nc1CCC(=O)c1ccc(CC2SC(=O)NC2=O)cc1 (centres unmarked) [Darglitazone] | observed to delay Aβ42 aggregation
5 | O=C1NC(=O)C(Cc2ccc3c(c2)CC[C@H](Cc2ccccc2)O3)S1 (some centres unmarked) [Englitazone] | significantly delayed aggregation
